Test results taken from ChEMBL document CHEMBL1201862, “PubChem BioAssay data set” (2004).
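Grown in 96-well plates, cells were treated for 48 hours with each compound at five concentrations. Insufficient inhibition: endpoint recorded as highest concentration tested. GI50: concentration for 50% inhibition of growth.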 The source made the active and inactive calls. Cut-off read from the data, not from the text of the source: active = GI50 up to about 1.1 µM and inactive = higher. Residues, ends and D or L forms follow the SMILES beside them. *: point of attachment. Boc = CC(C)(C)OC(=O)*

Legend:
Experiment in all cases: DTP human tumour cell line panel, 48 h
MCF7 = tested on: MCF7
ACHN = tested on: ACHN
SN12C = tested on: SN12C
U-251 = tested on: U-251
SK-OV-3 = tested on: SK-OV-3
A498 = tested on: A498
HCT-116 = tested on: HCT-116
HT-29 = tested on: HT-29
LOX IMVI = tested on: LOX IMVI
HOP-92 = tested on: HOP-92
KM12 = tested on: KM12
SK-MEL-5 = tested on: SK-MEL-5
SNB-19 = tested on: SNB-19
A549 = tested on: A549
PC-3 = tested on: PC-3
SW-620 = tested on: SW-620
OVCAR-4 = tested on: OVCAR-4
NCI-H226 = tested on: NCI-H226
CAKI-1 = tested on: CAKI-1
SK-MEL-2 = tested on: SK-MEL-2

| Structure (SMILES) | GI50 (MCF7) | GI50 (ACHN) | GI50 (SN12C) | GI50 (U-251) | GI50 (SK-OV-3) | GI50 (A498) | GI50 (HCT-116) | GI50 (HT-29) | GI50 (LOX IMVI) | GI50 (HOP-92) | GI50 (KM12) | GI50 (SK-MEL-5) | GI50 (SNB-19) | GI50 (A549) | GI50 (PC-3) | GI50 (SW-620) | GI50 (OVCAR-4) | GI50 (NCI-H226) | GI50 (CAKI-1) | GI50 (SK-MEL-2) |
| --- | --- | --- | --- | --- | --- | --- | --- | --- | --- | --- | --- | --- | --- | --- | --- | --- | --- | --- | --- | --- |
| Cc1ccc(C2=C(Cl)C(=O)C(c3ccc(C)cc3)=C(Cl)C2=O)cc1 | > 100 µM (inactive) | > 100 µM (inactive) | > 100 µM (inactive) | > 100 µM (inactive) | > 100 µM (inactive) | > 100 µM (inactive) | > 100 µM (inactive) | > 100 µM (inactive) | > 100 µM (inactive) | > 100 µM (inactive) | > 100 µM (inactive) | > 100 µM (inactive) | > 100 µM (inactive) | > 100 µM (inactive) | > 100 µM (inactive) | > 100 µM (inactive) | > 100 µM (inactive) | > 100 µM (inactive) | > 100 µM (inactive) | – |
| CSC1=NN=C(SC)NN1 | 0.201 µM (active) | 0.168 µM (active) | 0.18 µM (active) | 0.18 µM (active) | 0.186 µM (active) | – | 0.167 µM (active) | 0.173 µM (active) | 0.15 µM (active) | 0.173 µM (active) | 0.192 µM (active) | 0.182 µM (active) | 0.191 µM (active) | 0.204 µM (active) | 0.166 µM (active) | 0.17 µM (active) | 0.172 µM (active) | 0.181 µM (active) | 0.173 µM (active) | 0.145 µM (active) |
| N=C/N=C/C(=S)O[C@@H]1C(=O)N2CCC[C@@]23CCCC[C@@H]13 | > 12.5 µM (inactive) | > 12.5 µM (inactive) | > 12.5 µM (inactive) | > 12.5 µM (inactive) | > 12.5 µM (inactive) | > 12.5 µM (inactive) | > 12.5 µM (inactive) | > 12.5 µM (inactive) | > 12.5 µM (inactive) | – | > 12.5 µM (inactive) | > 12.5 µM (inactive) | > 12.5 µM (inactive) | > 12.5 µM (inactive) | > 12.5 µM (inactive) | – | > 12.5 µM (inactive) | > 12.5 µM (inactive) | > 12.5 µM (inactive) | > 12.5 µM (inactive) |
| S=c1[nH]c2c(Cl)c(Cl)c(Cl)c(Cl)c2[nH]1 | 16.8 µM (inactive) | 15.8 µM (inactive) | 20.6 µM (inactive) | 31.7 µM (inactive) | 20.1 µM (inactive) | 22.2 µM (inactive) | 21.1 µM (inactive) | 24 µM (inactive) | 8.69 µM (inactive) | 19.5 µM (inactive) | 15.5 µM (inactive) | 17.6 µM (inactive) | 27.9 µM (inactive) | 25.2 µM (inactive) | 22.2 µM (inactive) | 19.8 µM (inactive) | 5.94 µM (inactive) | – | 25.7 µM (inactive) | – |
| Nc1c(C(=O)O)nnc2cc(Cl)c(Cl)cc12 | > 100 µM (inactive) | > 100 µM (inactive) | > 100 µM (inactive) | > 100 µM (inactive) | > 100 µM (inactive) | 91 µM (inactive) | > 100 µM (inactive) | > 100 µM (inactive) | 82 µM (inactive) | – | > 100 µM (inactive) | > 100 µM (inactive) | > 100 µM (inactive) | > 100 µM (inactive) | > 100 µM (inactive) | > 100 µM (inactive) | > 100 µM (inactive) | 47.8 µM (inactive) | > 100 µM (inactive) | > 100 µM (inactive) |
| Cc1cc2c(cc1Cl)SC(N/N=C(\N)c1ccc(Cl)cc1)=NS2(=O)=O | 14.1 µM (inactive) | 84.3 µM (inactive) | 78.3 µM (inactive) | 44.7 µM (inactive) | > 100 µM (inactive) | 32.9 µM (inactive) | 46.2 µM (inactive) | 52.8 µM (inactive) | 43 µM (inactive) | 10.4 µM (inactive) | 35.2 µM (inactive) | > 100 µM (inactive) | 77.4 µM (inactive) | 96.6 µM (inactive) | 41 µM (inactive) | 25.8 µM (inactive) | 75.2 µM (inactive) | > 100 µM (inactive) | > 100 µM (inactive) | – |
| CC(C)(C)OC(=O)N1CCc2[nH][nH]c(=O)c2C1 | > 100 µM (inactive) | – | > 100 µM (inactive) | > 100 µM (inactive) | > 100 µM (inactive) | > 100 µM (inactive) | > 100 µM (inactive) | > 100 µM (inactive) | – | > 100 µM (inactive) | > 100 µM (inactive) | – | > 100 µM (inactive) | > 100 µM (inactive) | > 100 µM (inactive) | > 100 µM (inactive) | > 100 µM (inactive) | > 100 µM (inactive) | > 100 µM (inactive) | – |
| COc1ccc(C(C#N)NC23CC4CC(CC(C4)C2)C3)cc1 (stereo unspecified) | > 100 µM (inactive) | > 100 µM (inactive) | > 100 µM (inactive) | > 100 µM (inactive) | > 100 µM (inactive) | – | > 100 µM (inactive) | > 100 µM (inactive) | > 100 µM (inactive) | 67.9 µM (inactive) | > 100 µM (inactive) | > 100 µM (inactive) | > 100 µM (inactive) | > 100 µM (inactive) | > 100 µM (inactive) | > 100 µM (inactive) | > 100 µM (inactive) | > 100 µM (inactive) | > 100 µM (inactive) | > 100 µM (inactive) |
| COC(=O)c1cc(NC(=O)Cc2c[nH]c3ccccc23)cn1C | 60.8 µM (inactive) | 72.4 µM (inactive) | 42.9 µM (inactive) | 68.4 µM (inactive) | > 100 µM (inactive) | > 100 µM (inactive) | 71.4 µM (inactive) | 65.9 µM (inactive) | 58.3 µM (inactive) | – | > 100 µM (inactive) | 70.3 µM (inactive) | 70 µM (inactive) | 70.5 µM (inactive) | 44.6 µM (inactive) | > 100 µM (inactive) | 40.4 µM (inactive) | 21.7 µM (inactive) | > 100 µM (inactive) | 81.7 µM (inactive) |
| NS(=O)(=O)c1ccc2c(c1)OCCOCCOCCOCCO2 | > 100 µM (inactive) | > 100 µM (inactive) | > 100 µM (inactive) | – | > 100 µM (inactive) | > 100 µM (inactive) | > 100 µM (inactive) | > 100 µM (inactive) | > 100 µM (inactive) | – | > 100 µM (inactive) | > 100 µM (inactive) | > 100 µM (inactive) | > 100 µM (inactive) | > 100 µM (inactive) | > 100 µM (inactive) | – | > 100 µM (inactive) | > 100 µM (inactive) | – |
| CC1=CC(=O)N(n2c(-c3ccccc3)n[nH]c2=O)C1=O | > 100 µM (inactive) | > 100 µM (inactive) | > 100 µM (inactive) | > 100 µM (inactive) | > 100 µM (inactive) | – | > 100 µM (inactive) | > 100 µM (inactive) | > 100 µM (inactive) | – | > 100 µM (inactive) | > 100 µM (inactive) | > 100 µM (inactive) | > 100 µM (inactive) | > 100 µM (inactive) | > 100 µM (inactive) | > 100 µM (inactive) | > 100 µM (inactive) | > 100 µM (inactive) | > 100 µM (inactive) |
| Cc1cs/c(=N\C(P(=O)(O)O)P(=O)(O)O)n1C | > 100 µM (inactive) | > 100 µM (inactive) | – | > 100 µM (inactive) | > 100 µM (inactive) | > 100 µM (inactive) | > 100 µM (inactive) | > 100 µM (inactive) | > 100 µM (inactive) | 42.9 µM (inactive) | > 100 µM (inactive) | 86.5 µM (inactive) | > 100 µM (inactive) | > 100 µM (inactive) | > 100 µM (inactive) | > 100 µM (inactive) | – | > 100 µM (inactive) | > 100 µM (inactive) | – |
| C[n+]1c(-c2ccc(/C=N/NC(=O)C(=O)N/N=C/c3ccc(-c4cn5ccsc5[n+]4C)cc3)cc2)cn2ccsc21 | > 100 µM (inactive) | > 100 µM (inactive) | > 100 µM (inactive) | > 100 µM (inactive) | > 100 µM (inactive) | – | 92.5 µM (inactive) | > 100 µM (inactive) | – | – | > 100 µM (inactive) | > 100 µM (inactive) | > 100 µM (inactive) | > 100 µM (inactive) | > 100 µM (inactive) | > 100 µM (inactive) | > 100 µM (inactive) | – | – | – |
| CC(C)=CCC/C(C)=C\CC/C(C)=C/CO | 19.3 µM (inactive) | 22.4 µM (inactive) | 41.1 µM (inactive) | 17.6 µM (inactive) | – | – | 19.8 µM (inactive) | 19.7 µM (inactive) | > 10 µM (inactive) | 10.5 µM (inactive) | 38.2 µM (inactive) | 26.4 µM (inactive) | 18.5 µM (inactive) | > 100 µM (inactive) | 41.4 µM (inactive) | 85.9 µM (inactive) | 26.2 µM (inactive) | 36.4 µM (inactive) | > 10 µM (inactive) | 16.4 µM (inactive) |
| CC(C)(C)OC(=O)NC(Cc1ccc(O)cc1)C(=O)NC(CCCCN)C(=O)O (stereo not drawn) (Boc-Tyr-Lys-OH; configuration not given here) | 30.4 µM (inactive) | 23.7 µM (inactive) | 19.9 µM (inactive) | 20.9 µM (inactive) | – | 24.8 µM (inactive) | 16.9 µM (inactive) | 47.4 µM (inactive) | 15 µM (inactive) | – | – | 28.1 µM (inactive) | 22 µM (inactive) | 40.4 µM (inactive) | 44.9 µM (inactive) | 33.3 µM (inactive) | 17.5 µM (inactive) | 39.8 µM (inactive) | > 10 µM (inactive) | 20.2 µM (inactive) |
